Results reported in patent US20050209451A1, “Crystalline form of cefdinir” (priority 2002, published 2005).

Experiments:
[1] = accelerated stability tests in comparison with crystal A; type: physicochemical
Description: Cefdinir in the new crystalline form was subjected to accelerated stability tests in comparison with crystal A claimed in U.S. Pat. No. 4,935,507.

[2] = dissolution tests in 0.07 N HCl; type: physicochemical; settings: after the first hour, compared with crystal A

C=CC1=C(C(=O)O)N2C(=O)[C@@H](NC(=O)/C(=N\O)c3csc(N)n3)[C@H]2SC1 [new crystal, cefdinir]
stability ([1]; compared with reference crystal A of U.S. Pat. No. 4,935,507): at least equal to that of the reference crystal A
stability ([1]; compared with reference crystal A of U.S. Pat. No. 4,935,507, listed as product obtained in this manner): high stability
solubility on prolonged dissolution treatment (final dissolved cefdinir value) ([2]; listed as cefdinir in the new crystalline form): more soluble than crystal A
solubility on prolonged dissolution treatment (final dissolved cefdinir value) ([2]; listed as product obtained in this manner): higher than that possible with crystal A
